Laboratory results: patent EP2567959B1, “6-(4-HYDROXY-PHENYL)-3-STYRYL-1H-PYRAZOLO[3,4-B]PYRIDINE-4-CARBOXYLIC ACID AMIDE DERIVATIVES AS KINASE INHIBITORS” (SANOFI, priority 2011, dated 2013)

The compounds below were run against T1, human full-length recombinant PKC βII (Homo sapiens, UniProt P05771) (assay: Determination of PKC βII inhibition (Caliper mobility-shift kinase assay, phosphorylation of fluorescein peptide substrate)). Details: 1 h; final compound concentration 1.14 µM (±0.15 µM); 60 min incubation at 32 °C.
T1 construct: Active human full-length recombinant PKC βII; purchased Invitrogen GmbH, Darmstadt, Germany
T1 sequence (P05771 1-673 isoform P05771-2): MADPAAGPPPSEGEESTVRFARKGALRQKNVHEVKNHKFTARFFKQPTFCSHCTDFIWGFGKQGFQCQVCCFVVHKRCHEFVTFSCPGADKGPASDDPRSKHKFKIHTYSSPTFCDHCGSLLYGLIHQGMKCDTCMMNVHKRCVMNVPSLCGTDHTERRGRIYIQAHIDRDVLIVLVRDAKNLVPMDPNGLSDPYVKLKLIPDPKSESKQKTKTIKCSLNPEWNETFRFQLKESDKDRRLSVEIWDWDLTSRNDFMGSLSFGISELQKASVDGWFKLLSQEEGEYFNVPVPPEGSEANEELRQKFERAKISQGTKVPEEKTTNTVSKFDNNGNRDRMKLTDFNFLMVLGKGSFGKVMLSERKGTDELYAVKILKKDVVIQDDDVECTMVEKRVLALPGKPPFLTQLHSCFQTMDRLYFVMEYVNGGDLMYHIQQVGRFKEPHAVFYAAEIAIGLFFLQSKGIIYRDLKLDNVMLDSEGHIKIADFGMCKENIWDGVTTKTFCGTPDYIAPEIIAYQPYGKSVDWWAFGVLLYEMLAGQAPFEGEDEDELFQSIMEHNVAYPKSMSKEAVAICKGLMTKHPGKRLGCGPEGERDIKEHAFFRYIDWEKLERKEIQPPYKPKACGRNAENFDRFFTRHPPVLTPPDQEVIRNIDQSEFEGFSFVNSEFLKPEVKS
Assay type: biochemical
How it was run: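 Active full-length PKC βII in pH 7.4 Hepes with MgCl2, CaCl2, PS, DAG and Triton X-100; substrate/ATP mix held 3 µM fluorescein peptide and 120 µM ATP before addition. Reaction ran 60 min at 32 °C, stopped with EDTA. Mobility-shift fractional turnover gave % inhibition at 1.14 µM (±0.15 µM) final compound.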

Row | inhibition at 1.14 µM [%] | Compound
1 | 94 | O=C(c1cc(-c2ccc(O)cc2)nc2[nH]nc([C@H]3C[C@@H]3c3ccccc3)c12)N1CCNCC1 (racemic) [Example 18, (±)-[6-(4-Hydroxy-phenyl)-3 trans-(2-phenyl-cyclopropyl)-1 H-pyrazolo[3,4-b]pyridin-4-yl]-piperazin-1-yl-methanone]

Same assay, conditions: final compound concentration 1.14 µM (±0.15 µM); 60 min incubation at 32 °C

Row | Compound | inhibition at 1.14 µM [%]
2 | C[C@@H]1CN(C(=O)c2cc(-c3ccc(O)cc3)nc3[nH]nc(/C=C/c4ccccc4)c23)[C@@H](C)CN1 [Example 8, ((2S,5R)-2,5-Dimethyl-piperazin-1-yl)-[6-(4-hydroxy-phenyl)-3-((E)-styryl)-1H-pyrazolo[3,4-b]pyridin-4-yl]-methanone] | 97
3 | COc1cc(-c2cc(C(=O)N3CCNCC3)c3c(/C=C/c4ccccc4)n[nH]c3n2)ccc1O [Example 9, [6-(4-Hydroxy-3-methoxy-phenyl)-3-((E)-styryl)-1H-pyrazolo[3,4-b]pyridin-4-yl]-piperazin-1-yl-methanone] | 55
4 | O=C(c1cc(-c2ccc(O)cc2)nc2[nH]nc(/C=C/c3ccc4c(c3)OCO4)c12)N1CCNCC1 [Example 65, [3-((E)-2-Benzo[1,3]dioxol-5-yl-vinyl)-6-(4-hydroxy-phenyl)-1H-pyrazolo[3,4-b]pyridin-4-yl]-piperazin-1-yl-methanone] | 97
5 | O=C(c1cc(-c2ccc(O)cc2)nc2[nH]nc(/C=C/c3ccc4c(c3)CCO4)c12)N1CCNCC1 [Example 64, [3-[(E)-2-(2,3-Dihydrobenzofuran-5-yl)-vinyl]-6-(4-hydroxy-phenyl)-1H-pyrazolo[3,4-b]pyridin-4-yl]-piperazin-1-yl-methanone] | 99
6 | CC1(C)CN(C(=O)c2cc(-c3ccc(O)cc3)nc3[nH]nc(/C=C/c4ccccc4)c23)CCN1 [Example 4, (3,3-Dimethyl-piperazin-1-yl)-[6-(4-hydroxy-phenyl)-3-((E)-styryl)-1H-pyrazolo[3,4-b]pyridin-4-yl]-methanone] | 99
7 | CN(C)C(=O)c1cccc(/C=C/c2n[nH]c3nc(-c4ccc(O)cc4)cc(C(=O)N4CCNCC4)c23)c1 [Example 31, 3-{(E)-2-[6-(4-Hydroxy-phenyl)-4-(piperazine-1-carbonyl)-1H-py-razolo[3,4-b]py-ridin-3-yl]-vinyl}-N,N-dimethyl-benzamide] | 99
8 | O=C(c1cc(-c2ccc(O)cc2)nc2[nH]nc(/C=C/c3ccc(F)c(F)c3)c12)N1CCNCC1 [Example 59, [3-[(E)-2-(3,4-Difluoro-phenyl)-vinyl]-6-(4-hydroxy-phenyl)-1H-pyrazolo[3,4-b]pyridin-4-yl]-piperazin-1-yl-methanone] | 97

The next lines start with the values.

Row | inhibition at 1.14 µM [%] | Compound
9 | 98 | Cc1ccc(/C=C/c2n[nH]c3nc(-c4ccc(O)cc4)cc(C(=O)N4CCNCC4)c23)cc1 [Example 21, [6-(4-Hydroxy-phenyl)-3-((E)-2-p-tolyl-vinyl)-1H-pyrazolo[3,4-b]-pyridin-4-yl]-piperazin-1-yl-methanone]
10 | 99 | CCOc1ccc(/C=C/c2n[nH]c3nc(-c4ccc(O)cc4)cc(C(=O)N4CCNCC4)c23)cc1 [Example 67, [3-[(E)-2-(4-Ethoxy-phenyl)-vinyl]-6-(4-hydroxy-phenyl)-1 H-pyrazolo[3,4-b]pyridin-4-yl]-piperazin-1-yl-methanone]
11 | 97 | O=C(c1cc(-c2ccc(O)cc2)nc2[nH]nc(/C=C/c3ccccc3)c12)N1CCNCC1 [Example 2, [6-(4-Hydroxy-phenyl)-3-((E)-styryl)-1H-pyrazolo[3,4-b]pyridin-4-yl]-piperazin-1-yl-methanone]
12 | 95 | CC(C)(C)c1ccc(/C=C/c2n[nH]c3nc(-c4ccc(O)cc4)cc(C(=O)N4CCNCC4)c23)cc1 [Example 54, [3-[(E)-2-(4-tert-Butyl-phenyl)-vinyl]-6-(4-hydroxy-phenyl)-1H-pyrazolo[3,4-b]pyridin-4-yl]-piperazin-1-yl-methanone]
